Earlier results as cited in patent US20220024925A1, “Deuterium-Substituted 7-Substituted-2-(Benzylamino)-6-Ozopurine Compounds and Uses Thereof” (Acurx Pharmaceuticals LLC, priority 2020, published 2022).

What was measured:
[1] = test system: other, intestinal Gram-positive anaerobes; settings: stated in words only; see Wright et al., U.S. Pat. No. 8,796,292
[2] = test system: C. diff; settings: stated in words only; see Wright et al., U.S. Pat. No. 8,796,292

O=c1[nH]c(NCc2ccc(Cl)c(Cl)c2)nc2ncn(CCN3CCOCC3)c12 [Compound I-1, 2-((3,4-dichlorobenzyl)amino)-7-(2-morpholinoethyl)-1,7-dihydro-6H-purin-6-one]
activity against other, intestinal Gram-positive anaerobes [1]: weak activity | activity against the growth of the intestinal anaerobe C. diff [2]: potent activity
